Results published in US12509429B2, “Hydroxybenzamide derivatives and methods of use in treating diabetes” (THE BOARD OF REGENTS OF THE UNIVERSITY OF OKLAHOMA, priority 2022, dated 2025).
Entries after “also recorded” stand apart in the source; their conditions may differ.

Key:
Type in all cases: cell-based, rat
INS-1 cells = experiment: Cell viability assay: protection of INS-1 cells from tunicamycin (Tm)-induced loss of viability (CellTiter-Glo, intracellular ATP); settings: Rattus norvegicus, INS1
Method: INS-1 cells were resuspended in RPMI 1640 medium containing 10% FBS and seeded at 5×10^3 cells/well in a 384-well plate. After overnight 24 h incubation, compounds were added to the wells at the indicated concentration using a pin-transfer robot (PerkinElmer). Tm in RPMI 1640 medium containing 10% FBS was then added at a final concentration of 0.15 μg/mL. After 72 h, the medium was removed and 20 μL of CellTiter-Glo reagent (Promega) was added. Luminescence was measured 10 min later using a Synergy Neo2 plate reader (Biotek).
Hydroxy benzamide (HBA) derivatives were synthesized based on various scaffolds and evaluated for their viability of rat INS-1 β cells in the presence of tunicamycin (Tm), a potent ER stress inducer that inhibits N-linked glycosylation of proteins. The maximum activities and the concentrations that reach half-maximal activity (EC50) of the compounds were evaluated by the degree of increase in viability of INS-1 cells co-treated with the compounds in the presence of Tm compared with Tm treatment alone.

INS-1 β cells [1] = experiment: Western blotting of cleaved caspase-3 and PARP (Tm-induced apoptosis); settings: INS-1 cells, Tm 0.3 μg/ml, 24 h, co-treatment at 1 and 5 μM, Western blot
Method: INS-1 cells were treated with or without Tm (0.3 μg/ml) in the presence of WO3i at indicated concentrations or DMSO for indicated times. Cleaved caspase-3 and PARP were determined by Western blotting. GADPH was used as a loading control. The data shown are representative of 3 independent experiments.
INS-1 cells cultured in 60-mm dishes were washed with PBS and lysed with lysis buffer (Cell Signaling Technology, Danvers, MA) containing protease and phosphatase inhibitors (Thermo). Aliquots of 20 μg total protein were separated on 10% SDS-PAGE gels (Life Technologies) and transferred to PVDF membranes (Life Technologies). The membranes were probed with primary antibodies followed by the appropriate HRP-conjugated secondary antibodies. Blots were then developed using Pierce ECL Western Blotting Substrate (cat no 32106). The primary antibodies and dilutions used were: cleaved caspase 3 (1:1000, 9661, Cell Signaling Technology, MA, USA), and PARP (1:1000, 9542L, Cell Signaling Technology), and GAPDH (1:1000, SC-32233, Santa Cruz Biotechnology). Secondary antibodies used: goat anti rabbit IgG and goat anti-mouse IgG, 1:5000; Santa Cruz Biotechnology, Santa Cruz, CA).
To determine whether the increase in cell viability following treatment with WO3i was caused by a suppression of apoptotic cell death, levels of cleaved caspase-3 and cleaved PARP were assessed by Western blotting. […] However, upon severe ER stress, caspase 3 undergoes proteolytic cleavage to form the active enzyme, which in turns cleaves PARP, to trigger apoptotic cell death.

INS-1 β cells [2] = experiment: Live-cell phase-contrast images of INS-1 cells under ER stress; settings: Tm 0.5 μg/mL, compound 5 μM, 24 h, phase-contrast/bright field
Method: INS-1 cells were treated with or without Tm (0.5 μg/mL) in the presence of WO3i (5 μM) or DMSO (0.1%) for 24 h, and live-cell phase-contrast images were acquired (magnification 10×).

CHOP mRNA = experiment: qRT-PCR of Tm-induced CHOP mRNA expression in INS-1 cells; settings: compound 5 μM, Tm 0.5 μg/ml, 4 h and 8 h, normalized to cyclophilin A, listed as WO3i
Method: CHOP mRNA levels by qRT-PCR in INS-1 cells treated for 4 h (A) and 8 h (B) with WO3i at 5 μM in the presence or absence of Tm (0.5 μg/ml). Data are presented as the fold change after normalized to cyclophilin A mRNA.
(§1) Total RNA was extracted from INS-1 cells using TRIzol reagent (Invitrogen, Carlsbad, CA) according to the manufacturer's protocol. 2 μg of total RNA was reverse transcribed using Superscript IV kit (Invitrogen). Real-time PCR was performed with a CFX96 Real-Time PCR detection system (Bio-Rad, CA) using SYBR Select Master Mix (Applied Biosystems, CA).
(§2) Relative mRNA levels were normalized against Cyclophilin A and were determined by ΔΔCt calculated from the difference in ΔCt values between the target gene and Cyclophilin A with and without treatment, based on comparative CT (cycle threshold) method.

[3] = test system: ATF6 activation (BiP mRNA); experiment: qRT-PCR of BiP mRNA (Tm-induced ATF6 activation) in INS-1 cells; settings: compound 5 μM, Tm 0.5 μg/ml, 4 h and 8 h, normalized to cyclophilin A, listed as WO3i
Method: BiP mRNA levels by qRT-PCR in INS-1 cells treated for 4 h (A) and 8 h (B) with WO3i at 5 μM in the presence or absence of Tm (0.5 μg/ml). Data are presented as the fold change after normalized to cyclophilin A mRNA.
as §1, §2

[4] = test system: IRE1α activation (Xbp1-s mRNA); experiment: qRT-PCR of spliced Xbp1 mRNA (Tm-induced IRE1α activation) in INS-1 cells; settings: compound 5 μM, Tm 0.5 μg/ml, 4 h and 8 h, normalized to cyclophilin A, listed as WO3i
Method: Spliced Xbp1 (Xbp1-s) mRNA levels by qRT-PCR in INS-1 cells treated for 4 h (A) and 8 h (B) with WO3i at 5 μM in the presence or absence of Tm (0.5 μg/ml). Data are presented as the fold change after normalized to cyclophilin A mRNA.
as §1, §2

[5] = test system: PERK activation (ATF4 mRNA); experiment: qRT-PCR of ATF4 mRNA (Tm-induced PERK activation) in INS-1 cells; settings: compound 5 μM, Tm 0.5 μg/ml, 4 h and 8 h, normalized to cyclophilin A, listed as WO3i
Method: ATF4 mRNA levels by qRT-PCR in INS-1 cells treated for 4 h (A) and 8 h (B) with WO3i at 5 μM in the presence or absence of Tm (0.5 μg/ml). Data are presented as the fold change after normalized to cyclophilin A mRNA.
as §1, §2

Compound: O=C(NCc1ccc(C(F)(F)F)cc1)c1cccc(O)c1 [Compound 3i, 3-Hydroxy-N-(4-(trifluoromethyl)benzyl)benzamide]
- Emax (INS-1 cells; % rescue from Tm (0.15 μg/mL)-induced reduction of INS-1 cell viability (intracellular ATP), Tm alone 0%, DMSO without Tm 100%, 72 h, read-out: Maximum % of Protection): 100%
- EC50 (INS-1 cells; INS-1 cell viability, Tm 0.15 μg/mL, ten 2-fold serial titration points, GraphPad Prism): 190 nM
- Tm-induced apoptosis: cleavage of caspase-3 and PARP (INS-1 β cells [1]): suppresses
- Tm-induced apoptosis: cleavage of caspase-3 and PARP (INS-1 β cells [1]; listed as WO3): almost completely abolished
- Tm-induced apoptosis: cleavage of caspase-3 and PARP (INS-1 β cells [1]; listed as WO3M): suppresses
- Tm-induced apoptosis: cleavage of caspase-3 and PARP (INS-1 β cells [1]; listed as WO3i): suppresses
- Preservation of INS-1 β cell viability under ER stress (images) (INS-1 β cells [2]; listed as WO3M): significantly more cells were preserved
- Preservation of INS-1 β cell viability under ER stress (images) (INS-1 β cells [2]; listed as WO3i): preserves the INS-1 β cell viability
- Tm-induced CHOP mRNA expression (CHOP mRNA): markedly diminished; also recorded: suppresses
- Tm-induced BiP mRNA level (ATF6 activation) [3]: completely suppressed; also recorded: suppresses
- Tm-induced spliced Xbp1 (Xbp1-s) mRNA level (IRE1α activation) [4]: eliminated; also recorded: suppresses
- Tm-induced ATF4 mRNA level (PERK activation) [5]: abolished; also recorded: suppresses
